Experimental data reported in patent US20230108004A1, “TREATMENT OF EPILEPSY WITH PLINABULIN OR HALIMIDE OR DIKETOPIPERAZINE DERIVATIVES” (Katholieke Universiteit Leuven, priority 2017, published 2023).

Key:
[1] = test system: PTZ-induced seizure behavior in zebrafish larvae; assay: Zebrafish pentylenetetrazole (PTZ) seizure model, behavioral analysis; assay type: in vivo, zebrafish (Danio rerio); conditions: 2 hours incubation; for antiseizure activity of the separated enantiomers: S-enantiomer only significant at 200 μg/mL (p<0.01)
Experimental: Experiments were performed as described in Copmans et al. (2018) Neurochem. Int. 112, 124-133; Afrikanova et al (2013) PLoS One 8, e54166 and Orellana-Paucar et al. (2012) Epilepsy Behav 24, 14-22. In brief, a single 7 dpf larva was placed in each well of a 96-well plate and treated with either VHC (1% DMSO) or test compound (1% DMSO) in a 100 μL volume. Larvae were incubated in dark for 2 hours at 28° C., whereafter 100 μL of either VHC (embryo medium) or 40 mM PTZ (20 mM working concentration) was added to each well. Next, within 5 minutes the 96-well plate was placed in an automated tracking device (ZebraBox Viewpoint, France) and larval behavior was video recorded for 30 minutes. The complete procedure was performed in dark conditions using infrared light. Total locomotor activity was recorded by ZebraLab software (Viewpoint, France) and expressed in actinteg units, which is the sum of pixel changes detected during the defined time interval (5 minutes). Larval behavior was depicted as mean actinteg units per 5 minutes during the 30 minute recording period and over consecutive time intervals. Data are expressed as mean±SD for single experiments with regards to screening and as mean±SEM for single experiments and for independent experiments of which the means or data are pooled.
In the first secondary screen three replicate wells were used per sample (100 μg/mL) tested and each experimental plate contained 12 internal control wells. In the second secondary screen six replicate wells were used per sample and concentration tested (100, 33, and 11 μg/mL), again 12 internal control wells were used per experimental plate.

[2] = test system: PTZ-induced epileptiform discharges in zebrafish larvae; assay: Zebrafish PTZ seizure model, electrophysiology (local field potential recordings from the optic tectum); assay type: in vivo, zebrafish (Danio rerio); conditions: 2 hours, 10 min recording
Experimental: Non-invasive LFP recordings were measured from the midbrain (optic tectum) of 7 dpf zebrafish larvae pre-incubated with VHC only, PTZ only, compound and VHC, or compound and PTZ [Zdebik, et al. (2013) PLoS One 8, 6e10. Experiments were performed as described in Copmans, et al. (2018) Neurochem. Int. 112, 124-133 and Copmans et al. (2018) ACS chemical neuroscience.]. In brief, larvae were incubated for approximately 2 hours with VHC (1% DMSO) or test compound (1% DMSO) in a 100 μL volume. After incubation, an equal volume of VHC (embryo medium) or 40 mM PTZ (20 mM working concentration) was added to the well for 15 minutes prior to recording. These steps occurred at 28° C., while further manipulation and electrophysiological recordings occurred at room temperature (±21° C.). The larva was embedded in 2% low melting point agarose (Invitrogen) and the signal electrode (an electrode inside a soda-glass pipet (1412227, Hilgenberg) pulled with a DMZ Universal Puller (Zeitz, Germany), diameter±20 microns, containing artificial cerebrospinal fluid (ACSF: 124 mM NaCl, 10 mM glucose, 2 mM KCl, 2 mM MgSO4, 2 mM CaCl2), 1.25 mM KH2PO4, and 26 mM NaHCO3, 300-310 mOsmols)) was positioned on the skin covering the optic tectum. A differential extracellular amplifier (DAGAN, USA) amplified the voltage difference between the signal (measured by the signal electrode) and the reference electrode. The differential signal was band pass filtered at 0.3-300 Hz and digitized at 2 kHz via a PCI-6251 interface (National instruments, UK) using WinEDR (John Dempster, University of Strathclyde, UK). A grounding electrode grounded the electrical system. All electrodes were connected with ACSF. Each recording lasted 600 seconds. Manual analysis was completed by quantification of the number, cumulative duration, and mean duration of epileptiform-like events with Clampfit 10.2 software (Molecular Devices Corporation, USA). An electrical discharge was considered epileptiform if it was a poly-spiking event comprising at least 3 spikes with a minimum amplitude of three times the baseline amplitude and a duration of at least 100 milliseconds. Data are expressed as mean±SD.

[3] = test system: zebrafish larvae; assay: Zebrafish toxicity evaluation: maximum tolerated concentration (MTC); assay type: in vivo, zebrafish (Danio rerio); conditions: highest concentration without death, toxicity or locomotor impairment
Experimental: Maximum tolerated concentration (MTC) was determined prior to further experiments and used as the highest test concentration. Experiments were performed as described in Copmans et al. (2018) Neurochem. Int. 112, 124-133. before. In brief, the MTC was investigated by exposing 12 larvae of 6 or 7 dpf to a range of concentrations in a 100 μL volume during 18 hours. The following parameters were investigated after 2 and 18 hours of exposure: touch response, morphology, posture, edema, signs of necrosis, swim bladder, and heartbeat. […] In case no MTC was reached, the highest soluble concentration was used.
Maximum tolerated concentration (MTC) was determined prior to further experiments and used as the highest test concentration. Experiments were performed as described in Copmans et al. (2018). Neurochem. Int. 112, 124-133. In brief, the MTC was investigated by exposing 12 larvae of 7 dpf to a range of concentrations in a 100 μL volume during 18 hours. The following parameters were investigated after 2 and 18 hours of exposure: touch response, morphology, posture, edema, signs of necrosis, swim bladder, and heartbeat.

[4] = test system: drug-resistant psychomotor seizures induced by corneal electrical stimulation; assay: Mouse 6-Hz (44 mA) psychomotor seizure model; assay type: in vivo, Male NMRI mice; conditions: 30 min before stimulation, VHC 28 s
Experimental: Experiments were performed as previously described. In brief, NMRI mice (average weight 32 g, range 28-36 g) were randomly divided into control and treatment groups (n=6-11). 50 μL (injection volume was adjusted to the individual weight) of VHC (PEG200:DMSO 1:1) or treatment (an ASD or test compound dissolved in VHC) was i.p. injected in mice and after 30 minutes psychomotor seizures were induced by low frequency, long duration corneal electrical stimulation (6 Hz, 0.2 ms rectangular pulse width, 3 s duration, 44 mA) using an ECT Unit 5780 (Ugo Basile, Comerio, Italy). Mice were manually restrained and a drop of ocular anesthetic (0.5% lidocaine) was applied to the corneas before stimulation. Following electrical current stimulation, the mouse was released in a transparent cage for behavioral observation, which was video-recorded. […] In addition, facial and mouth jerking as well as head nodding were observed occasionally. Seizure durations were measured during the experiment by experienced researchers, familiar with the different seizure behaviors. In addition, seizure durations were determined by blinded video analysis to confirm or correct the initial observations. Data are expressed as mean±SD.

[5] = test system: EKP-induced seizure behavior in zebrafish larvae; assay: Zebrafish ethyl ketopentenoate (EKP) seizure model, behavioral analysis; assay type: in vivo, zebrafish (Danio rerio)
Experimental: Experiments were performed as described in Zhang et al. (2017) Sci. Rep. 7, 7195. In brief, a single 7 dpf larva was placed in each well of a 96-well plate and treated with either VHC (1% DMSO) or test compound (1% DMSO) in a 100 μL volume. Larvae were incubated in dark for 2 hours at 28° C., whereafter 100 μL of either VHC (1% DMSO) or 1 mM EKP (1% DMSO, 500 μM working concentration) was added to each well. Next, within 5 minutes the 96-well plate was placed in an automated tracking device (ZebraBox Viewpoint, France) and larval behavior was video recorded for 30 minutes. The complete procedure was performed in dark conditions using infrared light. Total locomotor activity was recorded by ZebraLab software (Viewpoint, France) and expressed in actinteg units, which is the sum of pixel changes detected during the defined time interval (5 minutes). Larval behavior was depicted as mean actinteg units per 5 minutes during the 30 minute recording period and over consecutive time intervals. Data are pooled from independent experiments and expressed as mean±SEM.

[6] = test system: EKP-induced epileptiform discharges in zebrafish larvae; assay: Zebrafish EKP seizure model, electrophysiology (local field potential recordings); assay type: in vivo, zebrafish (Danio rerio); conditions: 12.5 μg/mL, 2 hours; 10 min recording; p≤0.05
Experimental: Non-invasive LFP recordings were measured from the midbrain (optic tectum) of 7 dpf zebrafish larvae pre-incubated with VHC only, EKP only, compound and VHC, or compound and EKP. Larvae were incubated for approximately 2 hours with VHC (1% DMSO) or test compound (1% DMSO). After incubation, VHC (1% DMSO) or 1 mM EKP (1% DMSO, 500 μM working concentration) was added to the well for 15 minutes prior to recording. These steps occurred at 28° C., while further manipulation and electrophysiological recordings occurred at room temperature (±21° C.). The larva was embedded in 2% low melting point agarose (Invitrogen) and the signal electrode was positioned on the skin covering the optic tectum and electrophysiological recordings (room temperature) were performed as described above for the zebrafish PTZ seizure model and as described in Zhang et al. (2017) Sci. Rep. 7, 7195. Manual analysis was completed by quantification of the number, cumulative duration, and mean duration of epileptiform-like events with Clampfit 10.2 software (Molecular Devices Corporation, USA). An electrical discharge was considered epileptiform if it was a poly-spiking event comprising at least 3 spikes with a minimum amplitude of three times the baseline amplitude and a duration of at least 100 milliseconds. Data are expressed as mean±SD.

Compound: C=CC(C)(C)c1[nH]cnc1C=C1NC(=O)C(Cc2ccccc2)NC1=O (single isomer, unassigned) [R-enantiomer]
- antiseizure activity of the separated enantiomers [1]: no significant effect

Compound: C=CC(C)(C)c1nc[nH]c1/C=C1\NC(=O)C(Cc2ccccc2)NC1=O (single isomer, unassigned) [S-enantiomer]
- antiseizure activity of the separated enantiomers [1]: active

Compound: C=CC(C)(C)c1nc[nH]c1/C=C1\NC(=O)C(Cc2ccccc2)NC1=O (stereo not drawn) [halimide]
- cumulative duration of PTZ-induced epileptiform events ([2]; MTC (200 μg/mL), p≤0.001): significantly lowered
- lowering of the percentage of larvae with PTZ-induced epileptiform activity ([2]; MTC (200 μg/mL), p≤0.001): ~60%
- number of PTZ-induced epileptiform events ([2]; MTC (200 μg/mL), p≤0.001): significantly lowered
- PTZ-induced seizure behavior ([1]; halimide at its MTC, 30 min recording period, p≤0.05): significantly lowered
- maximum tolerated concentration (MTC) [3]: 200 µg/mL

Compound: CC(C)(C)c1[nH]cnc1/C=c1\[nH]c(=O)/c(=C/c2ccccc2)[nH]c1=O [plinabulin]
- number of PTZ-induced epileptiform events ([2]; 12.5 μg/mL): non-significantly lowered
- percentage of larvae with PTZ-induced epileptiform activity ([2]; 12.5 μg/mL): non-significantly lowered
- cumulative duration of PTZ-induced epileptiform events ([2]; 12.5 μg/mL, p≤0.05): significantly lowered
- mean seizure duration ([4]; 5 mg/kg i.p., not significant): 21 s
- mean seizure duration ([4]; 10 mg/kg i.p., p<0.05): 12.5 s
- mean seizure duration ([4]; 20 mg/kg i.p., p<0.01): 15 s
- mean seizure duration ([4]; 40 mg/kg i.p., p<0.05): 15 s
- PTZ-induced seizure behavior ([1]; 1.56-12.5 μg/mL, 30 min recording, p≤0.01 (1.56), p≤0.001 (3.13, 6.25, 12.5) (FIG. 7A)): significantly lowered
- PTZ-induced seizure behavior ([1]; 12.5 and 3.13 μg/mL, 30 min recording period, p≤0.001 (FIG. 4C)): significantly lowered
- normal swimming behavior in comparison to VHC-treated larvae ([5]; 3.13, 6.25 and 12.5 μg/mL, compound+VHC, zebrafish EKP seizure model): significantly lowered
- EKP-induced seizure behavior ([5]; all concentrations tested (0.78-12.5 μg/mL), 2 hours incubation, 30 min recording (FIG. 7B)): significantly lowered
- cumulative duration of EKP-induced epileptiform events [6]: significantly lowered
- lowering of the percentage of larvae with EKP-induced epileptiform activity [6]: 40%
- number of EKP-induced epileptiform events [6]: significantly lowered
